Several values for one entry are separate records, joined by “and”; a condition that tells them apart may be missing. Equal values may be shown once.
How the values were obtained:
Human GlucR = target: T1, Human GlucR (Homo sapiens, UniProt P47871); assay: cAMP activity assay (assay 1) in assay medium; type: cell-based; conditions: Table 4, additional peptides, read-out: hGlucR EC50
T1 construct: expressed in transfected cells
Protocol: (§1) All sample dilutions were made in duplicate.
(§2) A frozen cryo-vial of cells expressing the receptor of interest was thawed rapidly in a water-bath, transferred to pre-warmed assay media and spun at 240×g for 5 minutes. Cells were re-suspended in assay media at an optimized concentration (e.g. hGCGR cells at 1×10^5 cells/ml, hGLP-1R and hGIPR cells at 0.5×10^5 cells/ml).
(§3) To this, 5 μL cell suspension was added and the plates incubated at room temperature for 30 minutes.
(§4) cAMP levels were measured using a commercially available cAMP dynamic 2 HTRF kit (Cisbio, Cat #62AM4PEJ), following the two step protocol as per manufacturer's recommendations. In brief; anti-cAMP cryptate (donor fluorophore) and cAMP-d2 (acceptor fluorophore) were made up separately by diluting each 120 in conjugate & lysis buffer provided in the kit. 5 μL anti-cAMP cryptate was added to all wells of the assay plate, and 5 μL cAMP-d2 added to all wells except non-specific binding (NSB) wells, to which conjugate and lysis buffer was added.

Human GLP1R = Human GLP1R (Homo sapiens, UniProt P43220); assay: cAMP activity assay (assay 1) in assay medium; type: cell-based; conditions: Table 4, additional peptides, read-out: hGLP1R EC50
Human GLP1R, sequence (P43220 24-463): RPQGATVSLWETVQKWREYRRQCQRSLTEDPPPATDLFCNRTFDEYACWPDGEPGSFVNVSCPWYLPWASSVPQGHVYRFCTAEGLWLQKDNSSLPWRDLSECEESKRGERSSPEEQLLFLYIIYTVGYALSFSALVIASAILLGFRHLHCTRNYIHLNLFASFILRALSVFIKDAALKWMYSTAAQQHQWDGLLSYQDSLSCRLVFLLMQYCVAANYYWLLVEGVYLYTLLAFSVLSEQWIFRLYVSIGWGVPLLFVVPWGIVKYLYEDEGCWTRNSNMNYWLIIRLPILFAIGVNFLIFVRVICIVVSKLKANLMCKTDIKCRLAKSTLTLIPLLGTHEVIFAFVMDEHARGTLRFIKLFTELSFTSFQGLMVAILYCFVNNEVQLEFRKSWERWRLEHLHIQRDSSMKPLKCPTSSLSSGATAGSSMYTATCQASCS
Protocol: as §1, §2, §3, §4

[1] = frozen blank plasma from rat; conditions: 37° C., up to 48 hours
[2] = frozen blank plasma from mouse; conditions: 37° C., up to 48 hours

T1 sequence (P47871 26-477): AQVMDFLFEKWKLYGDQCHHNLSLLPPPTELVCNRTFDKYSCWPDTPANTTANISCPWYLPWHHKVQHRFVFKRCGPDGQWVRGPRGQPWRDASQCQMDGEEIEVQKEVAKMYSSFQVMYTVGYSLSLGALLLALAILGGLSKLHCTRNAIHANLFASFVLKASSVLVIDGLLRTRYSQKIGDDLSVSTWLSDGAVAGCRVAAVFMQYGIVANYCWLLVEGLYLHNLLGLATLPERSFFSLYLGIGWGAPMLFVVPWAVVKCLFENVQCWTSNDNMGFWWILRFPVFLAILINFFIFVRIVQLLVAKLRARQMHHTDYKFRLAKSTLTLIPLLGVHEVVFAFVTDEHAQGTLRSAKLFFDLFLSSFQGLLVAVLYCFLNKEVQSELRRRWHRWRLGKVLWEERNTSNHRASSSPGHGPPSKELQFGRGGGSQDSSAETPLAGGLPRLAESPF

Compound	EC50 (Human GlucR) [nM]	EC50 (Human GLP1R) [nM]	fragment found [1]	fragment found [2]
CC(C)C[C@H](NC(=O)[C@H](Cc1ccc(O)cc1)NC(=O)[C@H](CCCCN)NC(=O)[C@H](CO)NC(=O)[C@H](Cc1ccc(O)cc1)NC(=O)[C@H](CC(=O)O)NC(=O)[C@H](CO)NC(=O)[C@@H](NC(=O)[C@H](Cc1ccccc1)NC(=O)[C@@H](NC(=O)CNC(=O)[C@H](CCC(N)=O)NC(=O)[C@H](CO)NC(=O)[C@@H](N)Cc1c[nH]cn1)[C@@H](C)O)[C@@H](C)O)C(=O)N[C@@H](CC(=O)O)C(=O)N[C@@H](CO)C(=O)N[C@@H](CCCNC(=N)N)C(=O)N[C@@H](CCCNC(=N)N)C(=O)N[C@@H](C)C(=O)N[C@@H](CCC(N)=O)C(=O)N[C@@H](CC(=O)O)C(=O)N[C@@H](Cc1ccccc1)C(=O)N[C@H](C(=O)N[C@@H](CCC(N)=O)C(=O)N[C@@H](Cc1c[nH]c2ccccc12)C(=O)N[C@@H](CC(C)C)C(=O)N[C@H](C(=O)N[C@@H](C)C(=O)NCC(=O)NCC(=O)NCC(=O)NCC(=O)NCC(=O)NCC(=O)N[C@@H](CCCCN)C(N)=O)C(C)C)C(C)C [g32 ?]	0.0103	0.0261	–	–
CCCCCCCCCCCCCCCC(=O)N[C@@H](CCC(=O)NCCCC[C@H](NC(=O)[C@H](CCCCN)NC(=O)[C@H](CO)NC(=O)[C@H](Cc1ccc(O)cc1)NC(=O)[C@H](CC(=O)O)NC(=O)[C@H](CO)NC(=O)[C@@H](NC(=O)[C@H](Cc1ccccc1)NC(=O)[C@@H](NC(=O)CNC(=O)[C@H](CCC(N)=O)NC(=O)C(C)(C)NC(=O)[C@@H](N)Cc1c[nH]cn1)[C@@H](C)O)[C@@H](C)O)C(=O)N[C@@H](CC(C)C)C(=O)N[C@@H](CC(=O)O)C(=O)N[C@@H](CO)C(=O)N[C@@H](CCC(=O)O)C(=O)N[C@@H](CCCNC(=N)N)C(=O)N[C@@H](C)C(=O)N[C@@H](CCCNC(=N)N)C(=O)N[C@@H](CC(=O)O)C(=O)N[C@@H](Cc1ccccc1)C(=O)N[C@H](C(=O)N[C@@H](C)C(=O)N[C@@H](Cc1c[nH]c2ccccc12)C(=O)N[C@@H](CC(C)C)C(=O)N[C@H](C(=O)N[C@@H](C)C(=O)NCC(=O)NCC(N)=O)C(C)C)C(C)C)C(=O)O [g87 ?]	0.129	0.0298	–	–
HSQGTFTSDXSEYLDSERARDFVAWLEAGG-amide X10 = K(gE-palm)	–	–	DPP cleaved product, minor	DPP cleaved product, minor
HSQGTFTSDXSRYLDSRSARDFVAWLEAGG-amide X10 = K(gE-palm)	–	–	DPP IV-cleavage product, 3% at 24 h	–
HSQGTFTSDYSKXLDSERARDFVAWLVAGG-amide X13 = K(gE-palm)	–	–	DPP IV-cleavage product, 2% at 24 h	DPP IV-cleavage product, 14% at 24 h and +1 DPP cleaved product, 5% at 24 h
